According to patent publication US20080306155A1, “METHOD FOR TREATING RENAL DISEASE” (priority 2004, published 2008):
“And” between values parts separate entries of the source, which are not always exact repeats. Identical values can stand only once.

Columns and labels:
Format in all cases: cell-based, rat
[1] = tested on: glomerular production of 20-HETE; assay: LC/MS measurement of glomerular 20-HETE production
Method: Liquid Chromatography/Mass Spectroscopy measurement of glomerular 20-HETE production: Glomeruli (approximately 20 μg protein) were incubated in a 0.1 mol/L KPO4 buffer containing 1 mmol/L NADPH for 30 minutes at 37° C. in the presence and absence of TGF-•1 (10 ng/ml). Incubations were stopped by acidification with formic acid, homogenized, and the homogenate extracted with chloroform:methanol (2:1) after addition of 10 ng of internal standard, 14,15-epoxyeicosa-5(Z)-enoic-methyl sulfonylimide (EEZE). Samples were reconstituted in 50% acetonitrile, cleaned up using on online, reverse-phase high performance liquid chromatography (HPLC) trapping column, and then the HETEs and epoxyeicosatrienoic acids (EETs) in the samples were separated using an isocratic step gradient on an 18C—RP 2×250 mm microbore HPLC (BetaBasic18 150×21 3•m; Thermo Hypersil-Keystone; Bellefonte, Pa.) using a mobile phase consisting of acetonitrile:water:acetic acid (57:43:0.1) for 20 minutes to resolve the HETEs followed by acetonitrile:water:acetic acid (63:37:0.1) for 15 minutes to resolve the EETs. Samples were ionized using negative ion electrospray and the peaks eluting with a mass/charge ratio (m/z) of 319 (HETEs and EETs) or 323 (internal standard) were isolated and monitored in the selective ion mass spectroscopy (MS) mode using an Agilent LSD ion trap mass spectrometer (Agilent Technologies 1100; Santa Clara Calif.). The ratio of ion abundances in the peaks of interest (HETEs and EETs, m/z 319) versus that corresponding to the closely eluting internal standard (EEZE, m/z 323) were determined and compared with a standard curve generated over a range from 0.1 ng to 2 ng of 20-HETE and EETs with each batch of samples.

isolated glomeruli [2] = assay: Albumin permeability (Palb) of isolated glomeruli; details: 10 ng/ml
Method: Measurement of Albumin Permeability (Palb): Glomeruli were isolated using the sieving method as previously described in a medium containing 5 g/dl of bovine serum albumin (BSA). See, Sharma R, et al, Kidney Intl. 58:131-136 (2000); and Savin V, et al. J. Am. Soc. Nephrol. 3:1260-1269 (1992). In each experimental condition, Palb was determined from the change in glomerular volume (•V) after exchange of the bath with medium containing 1 g/dl albumin. Palb was calculated as 1−(•Vexperimental/•Vcontrol) where glomeruli from SD rats fed a normal-salt diet were used to provide the control value for each experiment. To verify that lack of •Vs in Dahl S rats were related to changes in Palb rather than to changes in mechanical properties of glomeruli, additional studies were performed in which the glomeruli were exposed to a 5% solution of high molecular weight dextran.
In other experiments, we examined the interaction of TGF-• and 20-HETE on Palb in glomeruli isolated from SD rats and Dahl S rats fed either a LS diet or a HS diet for 4 days. Glomeruli were preincubated with vehicle or TGF-•1 (10 ng/ml) for 15 minutes at 37° C. and changes in Palb were determined. Glomeruli were also pretreated with 5, 14-20-HEDE (WIT003) (1 μmol/L; Taisho Pharmaceutical; Tokyo, Japan) (Alonso-Galicia et al., supra; and Yu et al., supra), for 15 minutes at 37° C. and the Palb response to TGF-• 1 (10 ng/ml) was redetermined. A minimum of 5 glomeruli from each rat were studied, and the experiments were performed using •5 rats per treatment group.

isolated glomeruli [3] = assay: Albumin permeability (Palb) of isolated glomeruli; details: glomeruli from Dahl S rats fed HS diet for 7 days; 10 ng/ml
[4] = glomeruli pretreated with TGF-•1 10 ng/ml

Substance: TGF-•1: transforming growth factor-beta 1, applied to isolated glomeruli at 10 ng/ml
- glomerular production of 20-HETE ([1]; SD glomeruli with TGF-•1 10 ng/ml): 3.4±0.5 ·g/30 minutes/mg protein
- formation of 15-, 12- or 5-HETE or EETs [1, 4]: without affecting
- reduction of formation of 20-HETE [1, 4]: 97%
- Palb after TGF-•1 (isolated glomeruli [2]; glomeruli from Dahl S rats fed HS diet for 4 days): 0.87±0.02
- Palb after TGF-•1 (isolated glomeruli [2]; glomeruli from Dahl S rats fed a LS diet): 0.75±0.01
- Palb after TGF-•1 (isolated glomeruli [2]; glomeruli from SD rats, 15 minutes, 37° C.): 0.60±0.02 and 0.56±0.02
- effect on Palb (isolated glomeruli [3]): no effect
